According to ChEMBL document CHEMBL1201862, “PubChem BioAssay data set” (2004):
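Five compound concentrations were applied to cells in 96-well plates for 48 hours; endpoints were derived by simple linear interpolation of the resulting dose-response curve. Abbreviation: GI50, concentration required for 50% inhibition of growth.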 Active and inactive are the calls of the source. Cut-off read from the data, not from the text of the source: active = GI50 up to about 1.1 µM and inactive = higher.

Key:
Assay in all cases: DTP human tumour cell line panel, 48 h
MCF7 = tested on: MCF7
SF-268 = tested on: SF-268
ACHN = tested on: ACHN
M14 = tested on: M14
LOX IMVI = tested on: LOX IMVI
SK-OV-3 = tested on: SK-OV-3
RPMI-8226 = tested on: RPMI-8226
NCI-H460 = tested on: NCI-H460
OVCAR-4 = tested on: OVCAR-4
NCI-H522 = tested on: NCI-H522
K562 = tested on: K562
HCC 2998 = tested on: HCC 2998
DU-145 = tested on: DU-145
MOLT-4 = tested on: MOLT-4
U-251 = tested on: U-251
A498 = tested on: A498
OVCAR-5 = tested on: OVCAR-5
OVCAR-8 = tested on: OVCAR-8
HCT-15 = tested on: HCT-15
HOP-62 = tested on: HOP-62

Measured: GI50

c1ccc(-c2cc(-c3cc(-c4ccccn4)[nH]n3)n[nH]2)nc1
55.7 µM: HCT-15
inactive: MCF7 > 100 µM | SF-268 > 100 µM | ACHN > 100 µM | M14 30.8 µM | LOX IMVI 94.4 µM | SK-OV-3 > 100 µM | RPMI-8226 70.6 µM | NCI-H460 35.6 µM | OVCAR-4 > 100 µM | NCI-H522 > 100 µM | K562 8.45 µM | HCC 2998 28.6 µM | DU-145 95.7 µM | MOLT-4 33.3 µM | U-251 > 100 µM | A498 > 100 µM | OVCAR-5 > 100 µM | OVCAR-8 > 100 µM | HOP-62 92.9 µM

N/C(=N\Nc1ccc(S(N)(=O)=O)cc1)c1cnccn1
inactive: MCF7 > 100 µM | SF-268 > 100 µM | ACHN > 100 µM | M14 > 100 µM | LOX IMVI > 100 µM | SK-OV-3 > 100 µM | RPMI-8226 > 100 µM | NCI-H460 > 100 µM | OVCAR-4 > 100 µM | NCI-H522 > 100 µM | K562 > 100 µM | HCC 2998 > 100 µM | DU-145 > 100 µM | MOLT-4 > 100 µM | U-251 > 100 µM | A498 > 100 µM | OVCAR-5 > 100 µM | OVCAR-8 > 100 µM | HOP-62 > 100 µM
> 100 µM: HCT-15

Cc1cc(O)c2c(c1)C(=O)C=C(Br)C2=O
active: K562 0.807 µM | MOLT-4 0.52 µM
10.2 µM: HCT-15
inactive: MCF7 7.82 µM | SF-268 30.5 µM | ACHN 15.6 µM | M14 15.8 µM | LOX IMVI 12.8 µM | SK-OV-3 > 100 µM | RPMI-8226 6.75 µM | NCI-H460 19.9 µM | OVCAR-4 11.8 µM | NCI-H522 2.94 µM | HCC 2998 > 43.7 µM | DU-145 12.4 µM | U-251 29.7 µM | A498 18.9 µM | OVCAR-5 16.1 µM | OVCAR-8 19.6 µM | HOP-62 > 63.5 µM

O=[N+]([O-])c1ccc2c(c1)/C(=N/N=C1c3ccccc3Cc3ccccc31)c1cc([N+](=O)[O-])cc([N+](=O)[O-])c1-2
inactive: MCF7 1.65 µM | SF-268 2.51 µM | ACHN 2.99 µM | M14 2.49 µM | LOX IMVI 2.24 µM | SK-OV-3 14.2 µM | RPMI-8226 4.39 µM | NCI-H460 3.14 µM | OVCAR-4 1.73 µM | NCI-H522 1.63 µM | K562 3.7 µM | HCC 2998 5.85 µM | DU-145 5.82 µM | MOLT-4 1.91 µM | U-251 3.24 µM | A498 5.75 µM | OVCAR-5 2.75 µM | OVCAR-8 1.67 µM | HOP-62 3.01 µM
2.14 µM: HCT-15

COC(=O)c1ccccc1C#CC#Cc1ccccc1C(=O)OC
7.35 µM: HCT-15
inactive: SF-268 > 10 µM | ACHN > 10 µM | M14 > 10 µM | LOX IMVI 7 µM | SK-OV-3 > 10 µM | RPMI-8226 > 10 µM | NCI-H460 > 10 µM | OVCAR-4 2.9 µM | NCI-H522 > 10 µM | K562 8.57 µM | HCC 2998 > 10 µM | DU-145 > 10 µM | MOLT-4 > 10 µM | U-251 > 10 µM | A498 > 10 µM | OVCAR-5 > 10 µM | OVCAR-8 6.21 µM | HOP-62 > 10 µM
active: MCF7 0.611 µM

CCOC(=O)/C=C/CCO[Si](C)(C)C(C)(C)C
inactive: MCF7 97.5 µM | SF-268 > 100 µM | ACHN > 100 µM | LOX IMVI 50.5 µM | SK-OV-3 > 100 µM | RPMI-8226 > 100 µM | NCI-H460 > 100 µM | OVCAR-4 > 100 µM | NCI-H522 > 100 µM | K562 > 100 µM | HCC 2998 > 100 µM | DU-145 > 100 µM | MOLT-4 > 100 µM | U-251 > 100 µM | A498 > 100 µM | OVCAR-5 > 100 µM | OVCAR-8 > 100 µM | HOP-62 > 100 µM
> 100 µM: HCT-15

O=C1CC(c2ccccc2Cl)C2(C(=O)NC(=S)NC2=O)C(c2ccccc2Cl)C1 (stereo not given)
inactive: MCF7 18.3 µM | SF-268 19 µM | ACHN 24.8 µM | M14 17.1 µM | LOX IMVI 16.9 µM | SK-OV-3 43 µM | RPMI-8226 34.1 µM | NCI-H460 20 µM | OVCAR-4 52 µM | NCI-H522 34.1 µM | K562 37.2 µM | HCC 2998 27 µM | DU-145 34 µM | MOLT-4 54.7 µM | U-251 15.3 µM | A498 21.4 µM | OVCAR-5 42.1 µM | OVCAR-8 23 µM | HOP-62 34.2 µM
21.1 µM: HCT-15

FC1=C2C3CCC(C3)C2C1(F)F (stereo not given)
> 100 µM: HCT-15
inactive: MCF7 > 100 µM | SF-268 > 100 µM | ACHN > 100 µM | M14 > 100 µM | LOX IMVI > 100 µM | SK-OV-3 > 100 µM | RPMI-8226 > 100 µM | NCI-H460 > 100 µM | OVCAR-4 > 100 µM | NCI-H522 > 100 µM | K562 > 100 µM | HCC 2998 > 100 µM | DU-145 > 100 µM | MOLT-4 > 100 µM | U-251 > 100 µM | A498 > 100 µM | OVCAR-5 > 100 µM | OVCAR-8 > 100 µM | HOP-62 > 100 µM

Cc1csc2nc(-c3cccc([N+](=O)[O-])c3)c(/C=N/N=C(N)N)n12
active: HCC 2998 < 0.01 µM | A498 0.933 µM
1.71 µM: HCT-15
inactive: MCF7 1.82 µM | SF-268 1.82 µM | ACHN 1.8 µM | M14 1.71 µM | LOX IMVI 1.81 µM | SK-OV-3 1.82 µM | RPMI-8226 1.86 µM | NCI-H460 3.2 µM | OVCAR-4 1.78 µM | NCI-H522 1.83 µM | K562 1.98 µM | DU-145 2.19 µM | U-251 1.67 µM | OVCAR-5 1.63 µM | OVCAR-8 1.74 µM | HOP-62 1.71 µM

CCN(C)c1nc(N(C)CC)c2nc(N(C)CC)nc(N(C)CC)c2n1
inactive: MCF7 > 100 µM | SF-268 > 100 µM | ACHN > 100 µM | M14 > 100 µM | LOX IMVI > 100 µM | SK-OV-3 > 100 µM | RPMI-8226 > 100 µM | NCI-H460 > 100 µM | OVCAR-4 > 100 µM | NCI-H522 > 100 µM | K562 > 100 µM | HCC 2998 > 100 µM | DU-145 > 100 µM | MOLT-4 > 100 µM | U-251 > 100 µM | A498 > 100 µM | OVCAR-5 > 100 µM | OVCAR-8 > 100 µM | HOP-62 > 100 µM
> 100 µM: HCT-15

O=C1c2ccccc2-c2nnc3c(c21)Cc1ccccc1C3
> 10 µM: HCT-15
inactive: MCF7 > 10 µM | SF-268 > 10 µM | ACHN > 10 µM | M14 > 10 µM | LOX IMVI > 10 µM | SK-OV-3 > 10 µM | RPMI-8226 > 10 µM | NCI-H460 > 10 µM | OVCAR-4 > 10 µM | NCI-H522 > 10 µM | K562 > 10 µM | HCC 2998 > 10 µM | DU-145 > 10 µM | MOLT-4 > 10 µM | U-251 > 10 µM | A498 > 10 µM | OVCAR-5 > 10 µM | OVCAR-8 > 10 µM | HOP-62 > 10 µM

COC(=O)/C(=C(\C)NC(C)=O)c1c(C(=O)OC)[nH]c2ccccc12
> 100 µM: HCT-15
inactive: MCF7 > 100 µM | SF-268 > 100 µM | ACHN > 100 µM | M14 > 100 µM | LOX IMVI > 100 µM | SK-OV-3 > 100 µM | RPMI-8226 > 100 µM | NCI-H460 > 100 µM | OVCAR-4 > 100 µM | NCI-H522 95.3 µM | K562 > 100 µM | HCC 2998 > 100 µM | DU-145 > 100 µM | MOLT-4 > 100 µM | U-251 > 100 µM | A498 > 100 µM | OVCAR-5 > 100 µM | OVCAR-8 > 100 µM | HOP-62 > 100 µM

COC(=O)[C@]1(c2cc3ccccc3[nH]2)CC2CN(CC(=O)N(C)OC)C1CC2(OC)OC (stereo not given in full)
inactive: MCF7 32.8 µM | SF-268 67.6 µM | ACHN 35.1 µM | M14 35.9 µM | LOX IMVI 37.7 µM | SK-OV-3 > 100 µM | RPMI-8226 14.7 µM | NCI-H460 55.3 µM | OVCAR-4 57.1 µM | NCI-H522 15.9 µM | K562 24.9 µM | HCC 2998 > 100 µM | DU-145 43.5 µM | U-251 16.1 µM | A498 39.1 µM | OVCAR-5 52.2 µM | OVCAR-8 39.3 µM | HOP-62 69.3 µM
28.2 µM: HCT-15

O=C1NC2(CCCCC2)C(=O)N1CCN(CCCl)CCCl [SPIROMUSTINE]
inactive: MCF7 113 µM | ACHN 23.1 µM | M14 > 25 µM | LOX IMVI 104 µM | SK-OV-3 171 µM | RPMI-8226 134 µM | NCI-H460 61.5 µM | OVCAR-4 > 239 µM | NCI-H522 65.5 µM | K562 214 µM | HCC 2998 > 230 µM | DU-145 > 25 µM | MOLT-4 34.2 µM | U-251 182 µM | A498 > 250 µM | OVCAR-5 > 233 µM | OVCAR-8 129 µM | HOP-62 107 µM
